{"source": "patent US20210244704A1", "about": "“Cabazitaxel in mCRPC Patients Previously Treated with Docetaxel and Who Failed a Prior androgen signaling targeted inhibitor Agent” (SANOFI MATURE IP, priority 2019, published 2021)", "test_system": "mCRPC patients, safety population", "test": "Same clinical study: safety (adverse events, laboratory abnormalities, dose reductions)", "format": "in vivo, human", "method": "For patients in Arm A, cabazitaxel 25 mg/m^2 was administered intravenously over 1 hour every 3 weeks along with oral prednisone 10 mg given daily. Primary prophylactic granulocyte-colony stimulating factor (G-CSF) was required at each cycle for all patients in the cabazitaxel arm\nFor patients in Arm B, abiraterone acetate was administered orally at 1000 mg once daily along with oral prednisone 5 mg given twice daily or enzalutamide was administered orally at 160 mg once daily continuously. Abiraterone acetate was administered to patients who had received enzalutamide prior to study entry. Enzalutamide was administered to patients who received prior abiraterone acetate.\nCabazitaxel 25 mg/m^2, was administered intravenously over 1 hour every 3 weeks with oral prednisone 10 mg daily. Premedication included an antihistamine, glucocorticoid (dexamethasone 8 mg or equivalent), and histamine 2 receptor antagonist. Antiemetic prophylaxis was administered at physician's discretion. Primary prophylactic granulocyte-colony stimulating factor was required during each cycle of cabazitaxel. Patients received either abiraterone acetate (1000 mg orally once daily and oral prednisone 5 mg twice daily) or enzalutamide (160 mg orally once daily) continuously. A treatment cycle was 3 weeks in both arms. Abiraterone acetate was given to patients who previously received enzalutamide before study entry. Enzalutamide was given to patients who previously received abiraterone acetate.\nUp to a maximum of 2 dose reductions was allowed per patient when necessary due to toxicity and according to the table below:\nEfficacy analysis used all randomized patients. Stratified log-rank tests were used to analyze time-to-event data. The primary analysis compared radiographic progression-free survival between the two treatment groups using a stratified log-rank test. Survival curves were generated using Kaplan-Meier estimates. Hazard ratios and associated 95% confidence intervals [CI] were estimated using a stratified Cox proportional hazards model. Stratified Cochran-Mantel-Haenszel chi-square tests were used to analyze categorical data. Descriptive statistics were used to summarize patient characteristics. The safety population (randomized patients who received at least one dose of study treatment) was used for all safety analyses.", "key": {"[1]": {"conditions": "human, in vivo, listed as cabazitaxel"}}}
{"smiles": "CO[C@H]1C(=O)[C@]2(C)[C@@H](OC)C[C@H]3OC[C@@]3(OC(C)=O)[C@H]2[C@H](OC(=O)c2ccccc2)[C@]2(O)C[C@H](OC(=O)[C@H](O)[C@@H](NC(=O)OC(C)(C)C)c3ccccc3)C(C)=C1C2(C)C", "note": "[Cabazitaxel, 4α-acetoxy-2α-benzoyloxy-5β,20-epoxy-1p-hydroxy-7β,10β-dimethoxy-9-oxo-11-taxen-13α-yl (2R,3S)-3-tert-butoxycarbonylamino-2-hydroxy-3-phenylpropionate]", "values": [{"measurement": "Grade ≥3 neutropenia, measured at nadir by blood test", "result": 55, "unit": "patients"}, {"measurement": "Anemia (laboratory abnormality)", "setting": "All grades", "result": "(99.2) %"}, {"measurement": "Constipation", "setting": "All grades", "result": 19, "unit": "n"}, {"measurement": "Hematuria", "setting": "All grades", "result": 19, "unit": "n"}, {"measurement": "Hypokalemia (laboratory abnormality)", "setting": "All grades", "result": "(12.0) %"}, {"measurement": "Leukopenia (laboratory abnormality)", "setting": "All grades", "result": "(74.4) %"}, {"measurement": "Thrombocytopenia (laboratory abnormality)", "setting": "All grades", "result": "(40.8) %"}, {"measurement": "Alopecia", "setting": "Grade ≥3", "result": 0, "unit": "n"}, {"measurement": "Anemia (laboratory abnormality)", "setting": "Grade ≥3", "result": "(8.0) %"}, {"measurement": "Arthralgia", "setting": "Grade ≥3", "result": 0, "unit": "n"}, {"measurement": "Asthenia/fatigue", "setting": "Grade ≥3", "result": 4.0, "unit": "%"}, {"measurement": "Bladder and urethral symptoms", "setting": "Grade ≥3", "result": 0, "unit": "n"}, {"measurement": "Cardiac disorders", "setting": "Grade ≥3", "result": 0.8, "unit": "%"}, {"measurement": "Constipation", "setting": "Grade ≥3", "result": 0, "unit": "n"}, {"measurement": "Diarrhea", "setting": "Grade ≥3", "result": 3.2, "unit": "%"}, {"measurement": "Dysgeusia", "setting": "Grade ≥3", "result": 0, "unit": "n"}, {"measurement": "Dyspnea", "setting": "Grade ≥3", "result": 0, "unit": "n"}, {"measurement": "Febrile neutropenia", "setting": "Grade ≥3", "result": 3.2, "unit": "%"}, {"measurement": "Hypokalemia (laboratory abnormality)", "setting": "Grade ≥3", "result": "(0.8) %"}, {"measurement": "Leukopenia (laboratory abnormality)", "setting": "Grade ≥3", "result": "(32.0) %"}, {"measurement": "Musculoskeletal pain/discomfort", "setting": "Grade ≥3", "result": 1.6, "unit": "%"}, {"measurement": "Nausea/vomiting", "setting": "Grade ≥3", "result": 0, "unit": "n"}, {"measurement": "Peripheral edema", "setting": "Grade ≥3", "result": 0, "unit": "n"}, {"measurement": "Peripheral neuropathy", "setting": "Grade ≥3", "result": 3.2, "unit": "%"}, {"measurement": "Psychiatric disorders", "setting": "Grade ≥3", "result": 0, "unit": "n"}, {"measurement": "Renal disorders", "setting": "Grade ≥3", "result": 3.2, "unit": "%"}, {"measurement": "Spinal cord and nerve root disorders", "setting": "Grade ≥3", "result": 2.4, "unit": "%"}, {"measurement": "Stomatitis", "setting": "Grade ≥3", "result": 0, "unit": "n"}, {"measurement": "Thrombocytopenia (laboratory abnormality)", "setting": "Grade ≥3", "result": "(3.2) %"}, {"measurement": "Weight decreased", "setting": "Grade ≥3", "result": 0, "unit": "n"}, {"measurement": "Grade 5 adverse events related to bronchial aspiration", "setting": "human, in vivo", "result": "one"}, {"measurement": "Grade 5 adverse events related to general health deterioration due to progressive disease", "setting": "human, in vivo", "result": "two"}, {"measurement": "Grade 5 adverse events related to head injury", "setting": "human, in vivo", "result": "one"}, {"measurement": "Grade 5 adverse events related to infections", "setting": "human, in vivo", "result": "two"}, {"measurement": "Grade 5 adverse events related to spinal cord compression", "setting": "human, in vivo", "result": "one"}, {"measurement": "Nail disorders", "setting": "human, in vivo", "result": "no nail disorders were reported"}, {"measurement": "Any adverse event leading to permanent treatment discontinuation", "setting": "[1]", "result": 19.8, "unit": "%"}, {"measurement": "Any adverse events", "setting": "[1]", "result": 98.4, "unit": "%"}, {"measurement": "Any grade ≥3 adverse events", "setting": "[1]", "result": 56.3, "unit": "%"}, {"measurement": "Any serious adverse events", "setting": "[1]", "result": 38.9, "unit": "%"}, {"measurement": "Grade ≥3 adverse events occurring more frequently in patients ≥70 years of age", "setting": "≥70 vs <70 years", "result": "asthenia, diarrhea and febrile neutropenia"}]}
